Measured values published in paper PMC9321231.

Legend:
[1] = tested on: urinary bladder carcinoma (UMUC-3) cells; test: Antiproliferative assay (MTT or SRB), UMUC-3; assay type: cell-based, human; details: for IC50: Homo sapiens, UMUC3, UMUC-3, read-out: IC50 ± SD, antiproliferative activity; for Calculated Selectivity Index SI: IC50 Balb/3T3 / IC50 UMUC-3
Protocol: (§1) Cell preparation, an in vitro antiproliferative assay, and MTT and SRB cytotoxic tests were performed according to the literature.

[2] = tested on: lung carcinoma (A549) cells; test: Antiproliferative assay (MTT or SRB), A549; assay type: cell-based, human; details: for IC50: Homo sapiens, A549, A-549, read-out: IC50 ± SD, antiproliferative activity; for Calculated Selectivity Index SI: IC50 Balb/3T3 / IC50 A-549
Protocol: as §1

[3] = Spontaneous hydrolysis (chemical stability) in phosphate buffer, spectrophotometric; assay type: physicochemical; details: 0.05 M phosphate buffer, pH 7.3, 25 °C; for half-life: t1/2 = 0.693/k'
Protocol: Testing the stability of new drugs is of great importance for obtaining a good therapeutic profile as well as the safety of their future use. Degradation impurities can reduce drug efficacy and generate undesirable side effects.
The kinetics hydrolysis of the compounds was evaluated at 25 °C in 0.05 M phosphate buffer, pH 7.3, by measuring changes in absorbance spectra during incubation using a T60U spectrophotometer (PG Instruments). The absorbance (At) at characteristic absorption maxima for each compound was measured at 10 min intervals until there was no further decrease in absorbance (Aꝏ). Using these measurements, semilogarithmic plots of the dependence of log(At–Aꝏ) on time were prepared, and k’ values were determined from the slope of these plots according to first order reaction kinetics. Half-conversion times were calculated using equation: t1/2 = 0.693/k’.

[4] = target: T1, human neutrophil elastase (HNE) (Homo sapiens, UniProt P08246); test: Kinetic analysis of the inhibition of human neutrophil elastase (Lineweaver-Burk, Dixon, secondary plots); assay type: biochemical; details: for Inhibition Type: Lineweaver-Burk and Dixon analysis; for Kis (enzyme-substrate-inhibitor dissociation constant): secondary plot of intercept versus inhibitor concentration; for Ki: secondary plot of slope versus inhibitor concentration, read-out: Ki (enzyme-inhibitor dissociation constant)
T1 sequence (P08246 30-267): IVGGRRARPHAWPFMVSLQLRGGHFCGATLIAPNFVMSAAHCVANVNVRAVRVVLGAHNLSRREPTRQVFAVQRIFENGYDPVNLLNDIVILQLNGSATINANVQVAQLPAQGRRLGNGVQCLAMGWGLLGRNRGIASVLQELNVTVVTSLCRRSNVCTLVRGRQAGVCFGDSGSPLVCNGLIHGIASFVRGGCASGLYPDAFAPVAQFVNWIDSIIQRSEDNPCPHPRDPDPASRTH
Protocol: Next, kinetic analysis of the mechanism of inhibition of human neutrophil elastase by thiazoles 3a–3j was determined using double-reciprocal plots of Lineweaver-Burk plots and Dixon analysis.
The first model is one in which the inhibitor binds better to the free enzyme (competitive mechanism), while the second model is one in which the inhibitor binds better to the enzyme-substrate complex (non-competitive mechanism). Next the secondary plots of slope versus concentration of test compounds were plotted to determine the enzyme-inhibitor dissociation constants Ki, and similarly as was used to determine enzyme-substrate-inhibitor dissociation constants Kis, the secondary plots of intercept versus concentration of tested compounds were plotted.
Kinetic studies were conducted in the presence of different concentrations of substrate (5, 25, 50 and 100 µM) and test compounds (in the range of 0–500 nM). The reaction conditions were the same as in the HNE inhibition assay and the reaction was monitored for 10 min at 25 °C with the same Ex an Em wavelengths. By Lineweaver–Burk plots, kinetic values such as the Michaelis–Menten constants and maximum velocity were determined. Next, two inhibition constants for inhibitor binding with free enzyme or enzyme–substrate complex (Ki and Kis) were obtained by plotting the secondary plot of the slopes of the determined straight lines or vertical intercept (1/Vmax) versus inhibitor concentration.

Compound | IC50 [1] | Calculated Selectivity Index SI [1] | IC50 [2] | Calculated Selectivity Index SI [2] | k, rate constant of spontaneous hydrolysis [3] | half-life [3] | Inhibition Type [4] | Kis (enzyme-substrate-inhibitor dissociation constant) [4] | Ki [4]
CCC1(CC)C(=O)N(c2ccc(-c3csc(Nc4cc(OC)c(OC)c(OC)c4)n3)cc2)C1=O [3c, 3,3-Diethyl-1-(4-(2-(3,4,5-trimethoxyphenylamino)thiazol-4-yl)phenyl)azetidine-2,4-dione] | 6.9 ± 0.21 µM | 1.07 | 6.4 ± 0.08 µM | 1.16 | 0.015 min⁻¹ | 46.2 min | mixed type I inhibition | 99.50 nM | 0.0661 µM
CCC1(CC)C(=O)N(c2ccc(-c3csc(Nc4ccc(S(N)(=O)=O)cc4)n3)cc2)C1=O [3e, 4-(4-(4-(3,3-Diethyl-2,4-dioxoazetidin-1-yl)phenyl)thiazol-2-ylamino)benzenesulfo-namide] | 7.49 ± 0.64 µM | 0.88 | 6.32 ± 0.89 µM | 1.04 | 0.0175 min⁻¹ | 39.6 min | mixed type I inhibition | 240.00 nM | 0.0358 µM
